Measured values from patent publication EP4711369A1, “1H-[1,2,3]TRIAZOLO[4,5-H]QUINAZOLINE COMPOUNDS AS PROTEIN KINASE INHIBITORS” (Chengdu Cynogen Bio-Pharmaceutical Technology Co., Ltd., priority 2023, dated 2024).

Experiments:
[1] = system: human breast cancer HCC1806 cells; assay: Assay of cell proliferation (CellTiter-Glo); assay type: cell-based; details: Homo sapiens, 144 h, 6 days, read-out: HCC1806 IC50 of cell proliferation inhibitory activity
Method in brief: (§1)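 Cells seeded per line at growth-adapted densities, treated 6 days at 37 °C/5% CO2 with nine 3-fold dilutions (10 µM to 0.1 nM final, 0.5% DMSO). Viability by CellTiter-Glo luminescence; IC50 from four-parameter fit.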

[2] = system: human gastric cancer MKN1 cells; assay: Assay of cell proliferation (CellTiter-Glo); assay type: cell-based; details: Homo sapiens, MKN-1, 144 h; MNK1, 6 days; read-out: MKN1 IC50 of cell proliferation inhibitory activity
Method in brief: as §1

[3] = system: human colon cancer HCT-116 cells; assay: Assay of cell proliferation (CellTiter-Glo); assay type: cell-based; details: 144 h, 6 days, read-out: HCT-116 IC50 of cell proliferation inhibitory activity
Method in brief: as §1

[4] = system: human acute myeloid leukemia MV-4-11 cells; assay: Assay of cell proliferation (CellTiter-Glo); assay type: cell-based; details: MV4-11, 144 h, 6 days, read-out: MV-4-11 IC50 of cell proliferation inhibitory activity
Method in brief: as §1

[5] = system: human breast cancer MCF-7 cells; assay: Assay of cell proliferation (CellTiter-Glo); assay type: cell-based; details: 144 h, MCF7 cells, 6 days, read-out: MCF7 IC50 of cell proliferation inhibitory activity
Method in brief: as §1

[6] = target: CDK2/cyclin E (Homo sapiens, UniProt P24941); assay: Assay of kinase activity (ADP-Glo); assay type: biochemical; details: kinase inhibitory activity, read-out: CDK2/E1 IC50
Method in brief: (§2)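 Kinase preincubated 10 min with compound in 50 mM Hepes, 10 mM MgCl2, 0.01% Brij35, 2 mM DTT, then substrate/ATP added for 60 min at 25 °C. ADP formed measured by ADP-Glo luminescence; IC50 by nonlinear concentration-response fitting.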

[7] = target: CDK4/cyclin D1 (Homo sapiens, UniProt P11802); assay: Assay of kinase activity (ADP-Glo); assay type: biochemical; details: kinase inhibitory activity
CDK4/cyclin D1, sequence (P11802 whole entry, species assumed): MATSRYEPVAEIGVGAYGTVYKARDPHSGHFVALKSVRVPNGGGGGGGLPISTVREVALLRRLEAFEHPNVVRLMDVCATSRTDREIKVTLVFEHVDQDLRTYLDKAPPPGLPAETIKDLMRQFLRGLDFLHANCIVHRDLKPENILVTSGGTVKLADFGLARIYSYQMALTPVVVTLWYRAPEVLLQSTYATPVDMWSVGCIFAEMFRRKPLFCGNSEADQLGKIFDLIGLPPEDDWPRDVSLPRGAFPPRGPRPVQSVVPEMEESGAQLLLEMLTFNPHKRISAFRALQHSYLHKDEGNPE
CDK4/cyclin D1, sequence (P24385 whole entry partner, species assumed): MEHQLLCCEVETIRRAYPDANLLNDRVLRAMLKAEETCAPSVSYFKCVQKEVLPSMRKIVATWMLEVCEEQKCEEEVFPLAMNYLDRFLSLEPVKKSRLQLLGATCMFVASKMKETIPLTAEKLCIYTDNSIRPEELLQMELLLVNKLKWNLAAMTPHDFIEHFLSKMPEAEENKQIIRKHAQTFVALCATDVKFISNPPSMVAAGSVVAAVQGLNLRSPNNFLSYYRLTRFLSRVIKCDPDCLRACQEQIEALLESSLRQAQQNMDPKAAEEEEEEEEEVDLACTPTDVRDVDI
Method in brief: as §2

[8] = system: Human ovarian cancer OVCAR3 cells; assay: Assay of cell proliferation (CellTiter-Glo); assay type: cell-based; details: Homo sapiens, OVCAR-3, 144 h, 6 days, read-out: OVCAR3 IC50 of cell proliferation inhibitory activity
Method in brief: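 OVCAR3 cells, 2000/well in RPMI 1640 with 20% FBS, treated with nine 3-fold dilutions from 10 µM to 0.1 nM (0.5% DMSO) for 6 days at 37 °C. Viability by CellTiter-Glo luminescence; IC50 by four-parameter fit.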

[9] = system: Human gastric cancer MKN1 cells; assay: MKN1 tumor model; assay type: in vivo; details: female BALB/c nude mice, p.o. 10, 20 and 30 mg/kg once daily, 22 days, Fig. 4
Description: Human gastric cancer MKN1 cells were cultured in RPMI 1640 medium containing 10% FBS at 37 °C and 5% CO2 in an incubator. Matrigel was mixed with serum-free RPMI 1640 medium at a ratio of 1:1, and then the mixture was used to resuspend the MKN1 cancer cells at 1 × 10^7 / 0.1 ml. Then, the cells were inoculated subcutaneously into the right rib area of female BALB/c nude mice. When the volume of tumors reached approximately 100-150 mm^3, the mice were randomly divided into groups for treatment, with six animals per group. The compound was prepared in a 20% aqueous solution of hydroxypropyl-gamma-cyclodextrin containing an equivalent amount of hydrochloric acid, and administered by oral gavage (p.o.) at dosages of 10, 20, and 30 (mg/kg) once daily, for a total of 22 days. The untreated group was given solvent by oral gavage. The tumor volume was measured twice a week using a vernier caliper by measuring the long and short diameters of a tumor. The formula for calculating a tumor volume was: volume (mm^3) = (long diameter (mm) × short diameter (mm) × short diameter (mm)/2. The mice were weighed daily.
The therapeutic effect of a drug was evaluated using the tumor growth inhibition (TGI%).

CC(C)n1nnc2ccc3cnc(Nc4ccc(C(=O)N5CC[C@H](N(C)C)C5)cc4)nc3c21 [Example I-10, (S)-(3-(Dimethylamino)pyrrolidin-1-yl)(4-((1-isopropyl-1H-[1,2,3]triazolo[4,5-H]quinazolin-8-yl)amino)phenyl)metha none]
IC50 [1]: 22 nM | IC50 [2]: 15 nM | IC50 [3]: 11 nM | IC50 [4]: 4 nM | IC50 [5]: 11 nM | IC50 [6]: 0.1 nM | IC50 [7]: 0.6 nM | IC50 [8]: 16 nM | growth inhibitory effect on the MKN1 tumor model (TGI%) [9]: dose-dependent relationship
